This is an account of results in patent US8889683B2, “Substituted quinoxalines as inhibitors of fatty acid binding protein” (Merck Sharp & Dohme Corp., priority 2010, dated 2014).

Sequence of FABP5 (Q01469 whole entry): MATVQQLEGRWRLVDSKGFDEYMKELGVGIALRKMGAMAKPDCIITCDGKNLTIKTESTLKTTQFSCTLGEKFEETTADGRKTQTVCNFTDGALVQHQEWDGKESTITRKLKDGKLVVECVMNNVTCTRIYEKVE

One assay concerns the target FABP5 (Homo sapiens, UniProt Q01469). The assay is described as follows: FABP5 TdCD binding affinity.
Settings: not given
With `O=C(c1nc2ccccc2nc1O)N1CCC[C@H]1Cc1cccc(Cl)c1` [Compound 8-8, (S)-(2-(3-chlorobenzyl)pyrrolidin-1-yl)(3-hydroxyquinoxalin-2-yl)methanone], binding was put at a Kd of 0.5 µM.

The target in a further assay is FABP4 (Homo sapiens, UniProt P15090). The assay is described as follows: TdF-based ligand binding affinity (FABP inhibitory activity assay). Particulars: TdF-based ligand binding affinity constant. The source says: Theoretical basis for TdF-based ligand binding affinity constant
Sequence of FABP4 (P15090 whole entry): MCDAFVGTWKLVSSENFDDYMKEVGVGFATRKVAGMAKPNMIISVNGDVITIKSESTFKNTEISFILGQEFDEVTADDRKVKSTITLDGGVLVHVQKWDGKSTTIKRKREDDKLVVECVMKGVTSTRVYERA
The derivation of TdF-based ligand binding affinity constant (Kd) followed closely those previously formulated by Brandts and Lin, Biochemistry 29 (1990) 6927-6940. In brief, the binding constant of the ligand at the Tm is expressed as below: […]
where T0 is the midpoint of unfolding for unliganded protein and Tm is the midpoint of unfolding in presence of ligand. [LTm] is free ligand at Tm. The ΔHu and ΔCpu are the enthalpy of unfolding and heat capacity change of unfolding for the protein respectively. The ΔCPu is proportional to the size of protein and is an approximate quantity in the above equation (empirically, ΔCpu=(MW of protein/115)*14 cal/mol*K). Following algorithm derived by Mayhood et al, (Analytical Biochemistry 345 (2005) 187-197), the T0 and ΔHu can be determined separately from nonlinear regression fitting the temperature dependent protein alone curve to the following equation: […]
The nonlinear regression fitting in general readily reaches convergence by properly constraining the initial values for the fitting parameters (e.g. the initial “guess” for the ΔHu was constrained to 120 kcal/mol; initial Yn and mr, were set to 1 and zero to best represent the melting curve along the low temperature region; negative slope of −0.5 was initially chosen for mu; initial Tm was also constrained to 50° C.).
(see Brandts et al and Mayhood et al, shown above) where ΔHL (T) is the van't Hoff enthalpy of ligand binding at temperature T and ΔCpL is the heat capacity upon ligand binding. For simplicity, the ΔCpL and ΔHL (T) were set to zero and −7 kcal/mol respectively. (The ΔCpL accounts for minimal portion of total protein-ligand binding energetics and is therefore set to zero (For example, see Hossein Naghibi et al, Proc. Natl. Acad. Sci. 92, 5597-5599 (1995), where ΔCpL was estimated to ˜2% of ΔHL at 25° C. obtained from calorimetric study of binding RNase A and 2′-CMP)).
Consider `O=C(c1nc2ccccc2nc1O)N1CCCCC1Cc1cccc(F)c1` (racemic) [Compound 1-74, (+/−)-[2-(3-Fluorobenzyl)piperidin-1-yl](3-hydroxyquinoxalin-2-yl)methanone], for which the equilibrium dissociation constant (Kd) is 4.4 µM.
`O=C(c1nc2ccccc2nc1O)N1CCCCC1Cc1cccc(C(F)(F)F)c1` (racemic) [Compound 1-75, (+/−)-(3-Hydroxyquinoxalin-2-yl) {2-[3-(trifluoromethyl)benzyl]piperidin-1-yl}methanone] came in with a Kd of 0.98 µM.
`O=C(c1nc2ccccc2nc1O)N1CCCCC1Cc1ccc(F)cc1` (racemic) [Compound 1-79, (+/−)-[2-(4-Fluorobenzyl)piperidin-1-yl](3-hydroxyquinoxalin-2-yl)methanone]: binding was put at a Kd of 4.7 µM.
Turning to `COc1ccc(CC2CCCCN2C(=O)c2nc3ccccc3nc2O)cc1` (racemic) [Compound 1-80, (+/−)-(3-Hydroxyquinoxalin-2-yl)[2-(4-methoxybenzyl)piperidin-1-yl]methanone], the Kd came out at 4.76 µM.
Still for that read-out and setting: with `O=C(c1nc2ccccc2nc1O)N1CCCC(Cc2ccccc2)C1` (racemic) [Compound 1-83, (+/−)-(3-Benzylpiperidin-1-yl)(3-hydroxyquinoxalin-2-yl)methanone] the figure was 16.2 µM; with `COc1cccc(CC2CCCN(C(=O)c3nc4ccccc4nc3O)C2)c1` (racemic) [Compound 1-85, (+/−)-(3-Hydroxyquinoxalin-2-yl)[3-(3-methoxybenzyl)piperidin-1-yl]methanone], 11 µM; with `O=C(c1nc2ccccc2nc1O)N1CCCC(Cc2cccc(F)c2)C1` (racemic) [Compound 1-86, (+/−)-[3-(3-Fluorobenzyl)piperidin-1-yl](3-hydroxyquinoxalin-2-yl)methanone], 8.6 µM.
On to `O=C(c1nc2ccccc2nc1O)N1CCCC(Cc2ccc(F)cc2)C1` (racemic) [Compound 1-88, (+/−)-[3-(4-Fluorobenzyl)piperidin-1-yl](3-hydroxyquinoxalin-2-yl)methanone], for which the Kd turned out to be 5.5 µM.
On to `Cc1cccc(CC2CCCCCN2C(=O)c2nc3ccccc3nc2O)c1` (racemic) [Compound 1-91, (+/−)-(3-Hydroxyquinoxalin-2-yl)[2-(3-methylbenzyl)azepan-1-yl]methanone], for which the Kd is 1.84 µM.
Same read-out and setting: for `O=C(c1nc2ccccc2nc1O)N1CCCCCC1Cc1ccc(Cl)cc1` (racemic) [Compound 1-93, (+/−)-[2-(4-Chlorobenzyl)azepan-1-yl](3-hydroxyquinoxalin-2-yl)methanone] the value was 9 µM; for `O=C(c1nc2cc(F)cc(F)c2nc1O)N1CCC[C@H]1Cc1cc(Cl)cc(Cl)c1` [9-16, (S)-(2-(3,5-dichlorobenzyl)pyrrolidin-1-yl)(5,7-difluoro-3-hydroxyquinoxalin-2-yl)methanone], 0.007 µM.
Molecule `O=C(c1nc2c(F)cc(F)cc2nc1O)N1CCC[C@H]1Cc1cc(Cl)cc(Cl)c1` [9-18, (S)-(2-(3,5-dichlorobenzyl)pyrrolidin-1-yl)(6,8-difluoro-3-hydroxyquinoxalin-2-yl)methanone] displayed an equilibrium dissociation constant (Kd) of 0.05 µM.
Turning to `O=C(c1nc2ccccc2nc1O)N1CCC[C@H]1CNc1ccccc1` [Compound 1-65, (S)-(3-Hydroxyquinoxalin-2-yl){2-[(phenylamino)methyl]pyrrolidin-1-yl}methanone], the Kd is 22.7 µM.
Still for that read-out and setting: for `CN(Cc1ccccc1)C(=O)c1nc2ccccc2nc1O` [Compound 1-98] the value was 28.4 µM; for `O=C(c1nc2ccccc2nc1O)N1CCCC1Cc1cccc(Cl)c1` (centres unmarked) [Compound 1-99], 0.95 µM.
With `O=C(c1nc2ccccc2nc1O)N1CCCC1Cc1ccccc1Cl` (centres unmarked) [Compound 1-115], the dissociation constant Kd was 1.8 µM.
Consider `O=C(c1nc2ccccc2nc1O)N1CCCC1Cc1ccccc1` (centres unmarked) [Compound 1-116], for which the dissociation constant (Kd) is 4.6 µM.
In turn, `Cc1ccc(CC2CCCN2C(=O)c2nc3ccccc3nc2O)cc1` (centres unmarked) [Compound 1-117] had a dissociation constant (Kd) of 9.8 µM.
For `Cc1ccc(C(C)C)cc1N(C)C(=O)c1nc2ccccc2nc1O` [Compound 1-124], the Kd stood at 11.3 µM.
`CCCN(CC1CC1)C(=O)c1nc2ccccc2nc1O` [Compound 1-137] yielded a dissociation constant Kd of 31 µM.
On the same count and under the same terms, for `CN(CCc1ccccc1)C(=O)c1nc2ccccc2nc1O` [Compound 1-139] the value was 12.7 µM; for `CC(C)CN(C)C(=O)c1nc2ccccc2nc1O` [Compound 1-140], 23.2 µM.
For the molecule `COc1ccc(CCN(C)C(=O)c2nc3ccccc3nc2O)cc1OC` [Compound 1-141], binding was characterised by a dissociation constant (Kd) of 26.1 µM.
Take `CN(Cc1cccc(Cl)c1)C(=O)c1nc2ccccc2nc1O` [Compound 1-143]: the Kd amounted to 23.1 µM.
Regarding `O=C(c1nc2ccccc2nc1O)N1CCCC1Cc1ccccc1F` (centres unmarked) [Compound 1-153], binding was characterised by a dissociation constant (Kd) of 2.9 µM.
In the case of `CN(CCc1cccc(Cl)c1)C(=O)c1nc2ccccc2nc1O` [Compound 1-156], the Kd was 2.7 µM.
Still for that read-out and setting: with `O=C(c1nc2ccccc2nc1O)N1CCCC1Cc1ccc(F)cc1` (centres unmarked) [Compound 1-158] the figure was 2 µM.
Molecule `O=C(c1nc2cccc(Cl)c2nc1O)N1CCCC1Cc1cccc(F)c1` (centres unmarked) [Compound 1-161] displayed a Kd of 0.022 µM.
On to `O=C(c1nc2cccc(Cl)c2nc1O)N1CCCC1Cc1ccc(Cl)c(Cl)c1` (centres unmarked) [Compound 1-162], for which the affinity, expressed as Kd, was 0.004 µM.
In the case of `O=C(c1nc2ccc(C(F)(F)F)cc2nc1O)N1CCCC1Cc1cccc(F)c1` (centres unmarked) [Compound 1-163], binding was characterised by a dissociation constant (Kd) of 0.002 µM.
For `O=C(c1nc2ccc(C(F)(F)F)cc2nc1O)N1CCCC1Cc1ccc(Cl)c(Cl)c1` (centres unmarked) [Compound 1-164], the affinity, expressed as Kd, was 0.548 µM.
Turning to `O=C(c1nc2cc(Cl)c(Cl)cc2nc1O)N1CCCC1CC1CCCCC1` (centres unmarked) [Compound 1-165], the dissociation constant Kd worked out at 0.244 µM.
Still for that read-out and setting: with `Nc1nc2ccccc2nc1C(=O)N1CCCC1Cc1cccc(Cl)c1` (centres unmarked) [Compound 5-2, (3-aminoquinoxalin-2-yl)[2-(3-chlorobenzyl)pyrrolidin-1-yl]methanone] the figure was 10 µM.
For `O=C(c1nc2ccccc2nc1O)N1CCCC[C@@H]1Cc1cccc(Cl)c1` [Compound 7-7, (R)-(2-(3-chlorobenzyl)piperidin-1-yl)(3-hydroxyquinoxalin-2-yl)methanone], the affinity, expressed as Kd, was 8.1 µM.
`O=C(c1nc2ccccc2nc1O)N1CCCC[C@H]1Cc1cccc(Cl)c1` [Compound 7-8, (S)-(2-(3-chlorobenzyl)piperidin-1-yl)(3-hydroxyquinoxalin-2-yl)methanone]: the Kd amounted to 1.2 µM.
Take `O=C(c1nc2ccccc2nc1O)N1CCC[C@H]1Cc1cc(Cl)cc(Cl)c1` [Compound 8-6, (S)-(2-(3,5-dichlorobenzyl)pyrrolidin-1-yl)(3-hydroxyquinoxalin-2-yl)methanone]: binding was characterised by a dissociation constant (Kd) of 0.25 µM.
The molecule `O=C(c1nc2ccccc2nc1O)N1CCC[C@H]1Cc1cccc(Cl)c1` [Compound 8-8, (S)-(2-(3-chlorobenzyl)pyrrolidin-1-yl)(3-hydroxyquinoxalin-2-yl)methanone] had a Kd of 0.3 µM.
Still for that read-out and setting: for `O=C(c1nc2ccccc2nc1O)N1CCC[C@@H]1Cc1cccc(Cl)c1` [Compound 8-9, (R)-(2-(3-chlorobenzyl)pyrrolidin-1-yl)(3-hydroxyquinoxalin-2-yl)methanone] the value was 5 µM; for `O=C(c1nc2cc(Cl)c(Cl)cc2nc1O)N1CCC[C@H]1Cc1cc(Cl)cc(Cl)c1` [Compound 8-11], 0.004 µM.
`O=C(c1nc2cc(F)c(F)cc2nc1O)N1CCC[C@H]1Cc1cc(Cl)cc(Cl)c1` [Compound 8-12] gave a Kd of 0.0013 µM.
